# Source: patent US20260256808A1, “Istaroxime-Containing Intravenous Formulation for the Treatment of Pre-Cardiogenic Shock and Cardiogenic Shock” (Windtree Therapeutics, Inc., priority 2022, published 2026)
# Entries after “also recorded” stand apart in the source; their conditions may differ.
# Tests used:
# [1] = system: patients hospitalized with ADHF and reduced LV systolic function; conditions: 0.5-1.0-1.5 μg/kg/min, cited from earlier work
# patients with ADHF = conditions: cited from earlier work
# [2] = system: patients with AHF and exhibiting pre-cardiogenic shock (SCAI stage B); assay: SEISMIC: randomized, double-blind, placebo-controlled study of 24 h istaroxime infusion in pre-cardiogenic shock; type: in vivo, human
# Procedure: Pre-CS was defined as defined as systolic blood pressure (SBP)<90 mmHg without hypoperfusion, venous lactate >2 mmol/L and/or mechanical or inotropic support. The inclusion criteria included AHF-related SCAI stage B pre-CS, 18-85 years of age, an ongoing hospitalization for AHF, left ventricular ejection fraction <40%, persistent hypotension (SBP between 75 and 90 mmHg), heart rate of 75-150 bpm and no need at time of screening or planned use for 6 h thereafter of mechanical support or intravenous therapy to increase BR According to the stage B SCAI classification, patients with clinical signs of peripheral hypoperfusion, venous lactate >2 mmol/L and/or on mechanical support or treatment with intravenous vasodilators, inotropes or vasopressors were excluded. Other exclusion criteria were concomitant or planned treatment with oral digoxin (could be randomized if the plasma concentration of digoxin at screening was <0.5 ng/ml); acute coronary syndrome or stroke within the past 3 months; coronary artery bypass graft or percutaneous coronary intervention within the past month or planned in the next month; life-threatening ventricular arrhythmia or implantable cardioverter defibrillator shock within the past month; sustained ventricular tachycardia in the last 3 months or uncontrolled arrhythmia; fever >38° C.; estimated glomerular filtration rate (eGFR)[…]; serum potassium >5.3 or <3.5 mmol/L; stroke or transient ischaemic accident within the past 3 months; and acute respiratory distress syndrome.
# The patients were randomized centrally, using an interactive response technology, to receive istaroxime or placebo at a ratio of 1:1. Study medication was supplied in uniquely-numbered kits containing identical vials of lyophilized powder (istaroxime plus lactose), reconstituted by adding 5 ml saline to the vial. Istaroxime was administered as a continuous infusion 1.0 μg/kg/min for 24 h. The infusion rate could be decreased at the discretion of the investigator based on the development of tolerability issues (such as nausea), significant bradycardia, or greater than desired BP elevation.
# The primary efficacy endpoint was the area under the curve representing the change in SBP from baseline, start of study drug infusion, through 6 h (SBP AUC). The secondary endpoints included SBP AUC through 24 h; changes from baseline in SBP (particularly at 6 and 24 h), diastolic blood pressure (DBP) and mean arterial pressure (MAP); changes from baseline in heart rate (HR); treatment failure score (based on death, circulatory, respiratory, or renal mechanical support or intravenous inotrope or vasopressor treatment, and changes in SBP); treatment failure defined as death or need for circulatory, respiratory, or renal mechanical support or intravenous inotrope or vasopressor treatment; increase from baseline in SBP >5% and/or >10 mmHg; changes in quality of life measured by the EuroQol 5 Dimension 5 Level (EQ-5D-5L); change from baseline to 24 h in echocardiography parameters; changes in troponin and N-terminal pro-B-type natriuretic peptide (NT-proBNP); hospital readmission for heart failure and for any cause by day 30; in-hospital worsening heart failure to day 5; and length of hospital stay. In-hospital worsening heart failure was defined as worsening signs and/or symptoms of heart failure since the previous assessment that required an intensification of intravenous therapy for heart failure or mechanical ventilatory, renal, or circulatory support. The safety endpoints were assessed throughout the study and included the incidence of adverse events; changes in vital signs and in 12-lead electrocardiogram (ECG) parameters; incidence of clinically or haemodynamically significant episodes of supraventricular or ventricular arrhythmias detected by continuous ECG monitoring; standard laboratory parameters; renal function measures; cardiac troponin I or T; and mortality through day 30. […]
# [3] = 24 h Post-Treatment, adjusted least square mean change
# [4] = 24 h Post-Treatment, adjusted least square mean change, listed as istaroxime
# [5] = 24 h Post-Treatment, mean, n = 29
structure (smiles),measurement,setting,value
C[C@]12CCC(=NOCCN)C[C@@H]1C(=O)C[C@@H]1[C@@H]2CC[C@]2(C)C(=O)CC[C@@H]12 [Istaroxime],HR during infusion,[1]; 6-hour infusion,tended to decrease
same,SBP during infusion,[1]; 6-hour infusion,slightly increased in a dose-dependent manner
same,change from baseline in PCWP,"[1]; after 6 h infusion, vs placebo, plateaued after 3 hours",dose-dependent improvements in PCWP
same,E/Ea ratio,"patients with ADHF; 0.5 μg/kg/min and 1.0 μg/kg/min infused for up to 24 hours, vs placebo",an improvement in both treatment groups
same,diastolic function parameters,patients with ADHF; measured after 6 hours of infusion,significant improvements for most of the diastolic function parameters
same,adjusted SBP increase at 6 h,"[2]; 6 h after infusion start, (SE), p=0.045 vs placebo",12.3 (SE 1.71) mmHg
same,"Mitral Regurgitation Mild, number of patients",[2]; 24 h Post Treatment,11
same,"Mitral Regurgitation Mild, share of patients",[2]; 24 h Post Treatment,(39%)
same,"Mitral Regurgitation Moderate, number of patients",[2]; 24 h Post Treatment,16
same,"Mitral Regurgitation Moderate, share of patients",[2]; 24 h Post Treatment,(57%)
same,"Mitral Regurgitation None, number of patients",[2]; 24 h Post Treatment,1
same,"Mitral Regurgitation None, share of patients",[2]; 24 h Post Treatment,(4%)
same,"Cardiac Index, Change from Baseline",[2]; [3],0.156 L/min/m^2
same,"Cardiac Output, Change from Baseline",[2]; [3],0.23 L/min
same,"E/A Ratio, Change from Baseline",[2]; [3],−0.380
same,"E/Ea Ratio, Change from Baseline",[2]; [3],−0.615
same,"Ejection Time, Change from Baseline",[2]; [3],-2.807 ms
same,"Inferior Vena Cava Diameter, Change from Baseline",[2]; [3],−2.503 mm
same,"Left Atrial Area, Change from Baseline",[2]; [3],−1.817 cm^2
same,"Left Atrial Volume, Change from Baseline",[2]; [3],-7.440 mL
same,"Left Ventricular Ejection Fraction, Change from Baseline",[2]; [3],2.678%
same,"Left Ventricular End-Diastolic Diameter, Change from Baseline",[2]; [3],−0.668 mm
same,"Left Ventricular End-Diastolic Volume, Change from Baseline",[2]; [3],-6.501 mL
same,"Left Ventricular End-Systolic Diameter, Change from Baseline",[2]; [3],−0.719 mm
same,"Left Ventricular End-Systolic Volume, Change from Baseline",[2]; [3],-8.692 mL
same,"Pulmonary Artery Systolic Pressure, Change from Baseline",[2]; [3],−7.084 mmHg
same,"Stroke Volume Index, Change from Baseline",[2]; [3],4.001 ml/m^2
same,"Tricuspid Annular Plane Systolic Excursion, Change from Baseline",[2]; [3],0.0860 mm
same,"Cardiac Index, Change from Baseline",[2]; [4],0.16 ± 0.1 L/min/m^2
same,"Left Atrial Area, Change from Baseline",[2]; [4],−1.8+0.5 cm^2
same,"Left Ventricular End-Diastolic Volume, Change from Baseline",[2]; [4],−6.5+4.9 ml
same,"Left Ventricular End-Systolic Volume, Change from Baseline",[2]; [4],−8.7+4.2 ml
same,"Cardiac Index, Observed",[2]; [5],2.1 L/min/m^2
same,"Cardiac Output, Observed",[2]; [5],3.93 L/min
same,"E/A Ratio, Observed",[2]; [5],1.5
same,"E/Ea Ratio, Observed",[2]; [5],12.2
same,"Ejection Time, Observed",[2]; [5],219.0 ms
same,"Inferior Vena Cava Diameter, Observed",[2]; [5],19.5 mm
same,"Left Atrial Area, Observed",[2]; [5],27.1 cm^2
same,"Left Atrial Volume, Observed",[2]; [5],95.2 mL
same,"Left Ventricular Ejection Fraction, Observed",[2]; [5],29.5%
same,"Left Ventricular End-Diastolic Diameter, Observed",[2]; [5],61.3 mm
same,"Left Ventricular End-Diastolic Volume, Observed",[2]; [5],194.3 mL
same,"Left Ventricular End-Systolic Diameter, Observed",[2]; [5],52.8 mm
same,"Left Ventricular End-Systolic Volume, Observed",[2]; [5],135.7 mL
same,"Pulmonary Artery Systolic Pressure, Observed",[2]; [5],36.8 mmHg
same,"Stroke Volume Index, Observed",[2]; [5],28.3 ml/m^2
same,"Tricuspid Annular Plane Systolic Excursion, Observed",[2]; [5],15.9 mm
same,adjusted change in SBP at 24 h,"[2]; 24 h after infusion start, (SE), p=0.543 vs placebo",17.1 (SE 2.36) mmHg
same,change in DBP,"[2]; FIG. 3C, up to 96 h, persisting beyond the 24 h of drug administration",increases were noted
same,change in MAP,"[2]; FIG. 4A, persisting beyond the 24 h of drug administration",increases were noted
same,adjusted mean 6 h AUC of change in SBP from baseline,"[2]; infusion start to hour 6, istaroxime iv infusion 24 h, adjusted mean (SE), p=0.017 vs placebo",53.1 (SE 6.88) mmHg·h
same,adjusted mean 24 h SBP AUC,"[2]; infusion start to hour 24, adjusted mean (SE), p=0.025 vs placebo",291.2 (SE 27.5) mmHg·h
same,increase of adjusted mean 6 h SBP AUC versus placebo,[2]; istaroxime 53.1 vs placebo 30.9 mmHg·h,72%
same,increase of adjusted mean 24 h SBP AUC versus placebo,[2]; istaroxime 291.2 vs placebo 208.7 mmHg·h,40%
same,effect on heart rate / pulse,[2]; patients with pre-cardiogenic shock,without effects on pulse; also recorded: not by increasing the heart rate
